Test results reported in patent publication US9604974B2, “Compounds as modulator of JAK-STAT pathway, methods and applications thereof” (UNIVERSITY OF MYSORE, priority 2015, dated 2017).

Legend:
[1] = system: CAL27 (head and neck cancer cell line); experiment: MTT anti-proliferative assay, CAL27; assay type: cell-based; conditions: Homo sapiens, CAL-27
Procedure: (§1) The anti-proliferative activity of Formula I compounds are studied on HepG2 cells using MTT assay. Briefly, the cells (2.5×10^4/ml) are incubated in triplicate in a 96-well plate in the presence or absence of different concentrations of compounds in a final volume of 0.2 ml up to 72 hours at 37° C. Thereafter, 20 μl MTT solution (5 mg/ml in PBS) is added to each well. After 2 hours of incubation at 37° C., 0.1 ml lysis buffer (20% SDS, 50% dimethyl-formamide) is added; incubation is continued overnight at 37° C.; and the optical density (OD) at 570 nm is measured by Tecan plate reader.
(§2) Additionally, Compound 1 is tested on a panel of six cell lines including Hep3B, PLC/PRF5, AGS (gastric cancer cell line), DU145 (prostrate cancer cell line), MDA MB231 (breast cancer cell line) and CAL27 (head and neck cancer cell line) cells.

c-Src = experiment: Western blot of constitutive phospho-Src in HepG2; assay type: cell-based, human; conditions: HepG2, 10 μMol/L CIMO
caspase-3 and PARP = experiment: Western blot of procaspase-3 and PARP cleavage; assay type: cell-based, human; conditions: HepG2, 10 μMol/L CIMO, time dependent
Procedure: FIG. 4 depicts activation of caspase-3 and induction of apoptosis by Compound 1 (CIMO) [A]. HepG2 cells (5×10^5/mL) are treated with 10 μMol/L CIMO for the indicated times, whole-cell extracts are prepared, separated on SDS-PAGE, and subjected to Western Blotting against caspase-3 and PARP antibody. The same blot is stripped and reprobed with Beta actin antibody to show equal protein loading. [B] Tyrosine phosphatase inhibitor-sodium pervanadate reverses the inhibitory effect of Compound 1 (CIMO) on phospho-STAT3. HepG2 cells (5×10^5/mL) are treated with the indicated concentrations of sodium pervanadate and 10 μMol/L CIMO for about 4 hours, after which whole-cell extracts are prepared, resolved on SDS-PAGE gel, electrotransferred onto nitrocellulose membrane, and probed for phospho-STAT3 and STAT3. [C] illustrates the inhibitory activity of Compound 1 (CIMO) on phospho-STAT3 mediated by protein tyrosine phosphatase. […]
To detect STAT3-regulated proteins and PARP, cells (2×10^6/ml) are treated with CIMO for the indicated times as shown in respective FIGS. 3E, 3D and 4A. […] Whole-cell extract protein (30 μg) is resolved on SDS-PAGE, electrotransferred onto a nitrocellulose membrane, blotted with antibodies against survivin, Bcl-2, Bcl-xL, cyclin D1, Bak, Bid, ICAM-1, procaspase-3, and PARP and then detected by chemiluminescence (ECL; GE Healthcare, Little Chalfont, Buckinghamshire, UK).

[2] = system: STAT3 mediated transcription (α2-M promoter); experiment: α2-macroglobulin promoter luciferase reporter assay; assay type: cell-based, human; conditions: HepG2, versus DMSO control
Procedure: Increased STAT3 activity is known to stimulate oncogenicity of hepatocellular carcinoma. Therefore, evaluation of the level of phosphorylated STAT3 (Y705) in HepG2 cells is carried out with siRNA-mediated deletion of STAT3 transcripts and/or exposure to CIMO, using Western Blot analysis. Experiments related to transient-transfection of STAT3 siRNA in HepG2 cells and STAT3 mediated Transcription activity are performed wherein 60-70% confluent of cells in a 6-well plate are transfected using FuGENE6 (Roche Molecular Biochemicals, Indianapolis, USA) transfection reagent. Luciferase assay is performed using Dual Luciferase Assay Kit (Promega Corp, Singapore). Transfections are carried out in triplicate using 1 μg of the appropriate α-2 macroglobulin luciferase reporter plasmid and empty vector per transfection along with 0.2 μg of Renilla expression plasmid as control for transfection efficiency. Luciferase activities are assayed 48 hours after transfection using the dual Luciferase Assay System (Promega Corp, Singapore)
In addition, assessment of STAT3 mediated transcriptional activity using an α2-macroglobulin (α2-M) promoter in HepG2 cells with either siRNA-mediated depletion of STAT3 expression or on exposure to CIMO is carried out as described above (FIG. 3B).

[3] = system: MDA MB231 (breast cancer cell line); experiment: MTT anti-proliferative assay, MDA MB231; assay type: cell-based; conditions: Homo sapiens, MDA-MB-231
Procedure: as §1, §2

PLC/PRF5 = experiment: MTT anti-proliferative assay, PLC/PRF5; assay type: cell-based; conditions: Homo sapiens, PLC-PRF-5
Procedure: as §1, §2

STAT3 = STAT3 DNA binding TransAM ELISA on nuclear extracts; assay type: cell-based, human; conditions: HepG2 nuclear extracts, 10 μMol/L CIMO
Procedure: It is further investigated whether CIMO modulates STAT3 DNA binding activity in HepG2 cells, since it is known that STAT3 dimer translocates into the nucleus and binds to specific DNA nucleotide sequence to regulate gene expression. DNA binding assay is performed using a STAT3 DNA binding TransAM™ ELISA kit (Active Motif, Carlsbad, Calif., USA). Briefly, nuclear extracts (5 μg) from CIMO-treated cells are incubated in a 96-well plate coated with oligonucleotide containing the STAT3-specific DNA probe. Bound STAT3 is then detected by a specific primary antibody. An HRP-conjugated secondary antibody is subsequently applied to detect the bound primary antibody and provided the basis for colorimetric quantification. The enzymatic product is measured at 450 nm with a microplate reader (Tecan Systems, San Jose, Calif., USA). Specificity of this assay is tested by the addition of wild-type or mutated STAT3 consensus oligonucleotide in the competitive or mutated competitive control wells before the addition of the nuclear extracts.

[4] = system: DU145 (prostrate cancer cell line); experiment: MTT anti-proliferative assay, DU145; assay type: cell-based; conditions: Homo sapiens, DU-145
Procedure: as §1, §2

`COc1ccc(C2CNC(c3cn(Cc4ccc(-c5ccccc5C#N)cc4)c4ccccc34)OC23CCCCC3)cc1` (stereo not drawn) [Compound 1] was tested, and the IC50 [1] was 27.1 µM, the “phosphorylation of c-Src kinases” value (c-Src) was “significant inhibition” and the “full length PARP / cleaved 85-kDa fragment” value (caspase-3 and PARP) was “decline of full length PARP with increase in cleaved 85-kDa fragment”. The procaspase-3 activation (caspase-3 and PARP) was “activation of procaspase-3”, the α2-M promoter activity [2] was “decreased α2-M promoter activity” and the IC50 [3] was 24.3 µM. For the same compound, the IC50 (PLC/PRF5) was 38.8 µM, the “binding of STAT3 to the DNA” value (STAT3) was “suppresses the binding of STAT3 to the DNA in a time-dependent manner” and the IC50 [4] was 38.8 µM.
